Assay results reported in ChEMBL document CHEMBL4312031, “Discovery of candesartan cilexetic as a novel neddylation inhibitor for suppressing tumor growth” (Eur J Med Chem, 2020).
Active and inactive are the calls of the source. No cut-off for these calls is given here.

What was measured:
PLC = test: Antiproliferative activity against human PLC cells measured after 48 hrs by CCK8 assay; assay type: functional, cell-based
A549 [1] = test: Cell cycle arrest in human A549 cells assessed as accumulation at G1 phase at 50 uM measured after 24 hrs by propidium iodide/RNase A staining based flow cytometry analysis (reference value: 63.84 %); assay type: functional
A549 [2] = test: Cell cycle arrest in human A549 cells assessed as accumulation at G2 phase at 75 uM measured after 24 hrs by propidium iodide/RNase A staining based flow cytometry analysis (reference value: 12.69 %); assay type: functional
A549 [3] = test: Cell cycle arrest in human A549 cells assessed as accumulation at G1 phase at 75 uM measured after 24 hrs by propidium iodide/RNase A staining based flow cytometry analysis (reference value: 63.84 %); assay type: functional
A549 [4] = test: Cell cycle arrest in human A549 cells assessed as accumulation at G1 phase at 25 uM measured after 24 hrs by propidium iodide/RNase A staining based flow cytometry analysis (reference value: 63.84 %); assay type: functional
[5] = target: T1, NEDD8/Cullin-1 (Homo sapiens) (UniProt Q13616+Q15843); test: Competitive inhibition of Nedd8-cullin1 (unknown origin) adduct formation at 12.5 to 50 uM assessed as increase in substrate Km by Lineweaver-Burk plot analysis; assay type: protein assay
T1 sequence (Q13616 whole entry, looked up): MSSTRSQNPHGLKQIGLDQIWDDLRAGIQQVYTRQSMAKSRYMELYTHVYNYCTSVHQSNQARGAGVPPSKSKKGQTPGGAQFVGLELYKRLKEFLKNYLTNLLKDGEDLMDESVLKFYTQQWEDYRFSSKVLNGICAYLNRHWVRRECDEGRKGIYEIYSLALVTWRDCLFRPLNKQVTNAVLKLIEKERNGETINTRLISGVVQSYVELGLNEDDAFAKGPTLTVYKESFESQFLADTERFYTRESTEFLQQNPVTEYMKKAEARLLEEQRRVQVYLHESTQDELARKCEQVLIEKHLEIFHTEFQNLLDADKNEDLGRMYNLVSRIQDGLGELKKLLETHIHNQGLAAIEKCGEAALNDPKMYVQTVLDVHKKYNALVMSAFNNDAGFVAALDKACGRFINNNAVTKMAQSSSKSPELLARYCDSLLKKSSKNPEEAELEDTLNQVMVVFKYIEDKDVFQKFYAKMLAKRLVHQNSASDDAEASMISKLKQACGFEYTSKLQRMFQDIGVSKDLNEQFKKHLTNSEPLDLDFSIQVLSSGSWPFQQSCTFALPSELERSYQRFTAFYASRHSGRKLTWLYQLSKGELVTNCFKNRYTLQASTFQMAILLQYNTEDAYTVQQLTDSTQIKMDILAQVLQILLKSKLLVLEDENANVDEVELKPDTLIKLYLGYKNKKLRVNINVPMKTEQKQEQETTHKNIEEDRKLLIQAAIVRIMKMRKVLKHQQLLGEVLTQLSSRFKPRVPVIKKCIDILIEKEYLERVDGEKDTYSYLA
T1 sequence (Q15843 whole entry, looked up): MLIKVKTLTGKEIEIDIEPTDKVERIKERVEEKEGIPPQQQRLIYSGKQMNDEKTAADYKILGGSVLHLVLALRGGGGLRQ

A549 [6] = test: Cell cycle arrest in human A549 cells assessed as accumulation at sub-G1 phase at 25 uM measured after 24 hrs by propidium iodide/RNase A staining based flow cytometry analysis (reference value: 0.89 %); assay type: functional
BEAS-2B = test: Cytotoxicity against human BEAS2B cells after 48 hrs by CCK-8 assay; assay type: cell-based
A549 [7] = test: Cell cycle arrest in human A549 cells assessed as accumulation at G2 phase at 25 uM measured after 24 hrs by propidium iodide/RNase A staining based flow cytometry analysis (reference value: 12.69 %); assay type: functional
[8] = target: T2, NEDD8-conjugating enzyme Ubc12 (Homo sapiens) (UniProt P61081); test: Inhibition of UBC12 in human A549 cells assessed as decrease in Cullin1-Nedd8 adduct level at 50 uM measured after 6 to 12 hrs by Western blot analysis; assay type: cell-based
T2 sequence (whole entry): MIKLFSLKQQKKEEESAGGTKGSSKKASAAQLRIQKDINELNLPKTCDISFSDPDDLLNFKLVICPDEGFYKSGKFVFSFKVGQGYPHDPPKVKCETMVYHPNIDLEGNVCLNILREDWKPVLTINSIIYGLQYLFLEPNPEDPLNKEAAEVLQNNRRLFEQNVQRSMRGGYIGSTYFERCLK

[9] = target: T1, NEDD8/Cullin-1 (Homo sapiens); test: Inhibition of Nedd8-cullin1 (unknown origin) assessed as decrease in cullin1-Nedd8 adduct formation at 25 to 50 uM preincubated for 10 mins followed by ATP addition and measured after 30 mins by immunoblot analysis; assay type: protein assay
[10] = target: T1, NEDD8/Cullin-1 (Homo sapiens); test: Inhibition of Nedd8-cullin1 (unknown origin) adduct formation assessed as decrease in cullin1 neddylation at 50 uM preincubated for 10 mins followed by ATP addition and measured after 30 mins by immunoblot analysis; assay type: protein assay
A549 [11] = test: Induction of apoptosis in human A549 cells assessed as increase in PARP cleavage at 50 to 100 uM by Western blot analysis; assay type: functional, cell-based
NCI-H1299 = test: Antiproliferative activity against human H1299 cells measured after 48 hrs by CCK8 assay; assay type: functional, cell-based; conditions: NCI-H1299, 48 h
[12] = target: T1, NEDD8/Cullin-1 (Homo sapiens); test: Competitive inhibition of Nedd8-cullin1 (unknown origin) adduct formation assessed as decrease in cullin1-Nedd8 adduct formation at 50 uM preincubated for 10 mins followed by ATP addition and measured after 30 mins by immunoblot analysis; assay type: protein assay
T47D = test: Antiproliferative activity against human T47D cells measured after 48 hrs by CCK8 assay; assay type: functional, cell-based
A549 [13] = test: Antitumor activity against human A549 cells xenografted in nude mouse assessed as decrease in tumor weight at 60 mg/kg, ip qd measured after 22 days; assay type: functional, organism-based
A549 [14] = test: Cell cycle arrest in human A549 cells assessed as accumulation at S phase at 25 uM measured after 24 hrs by propidium iodide/RNase A staining based flow cytometry analysis (reference value: 21.54 %); assay type: functional
A549 [15] = test: Cell cycle arrest in human A549 cells assessed as accumulation at S phase at 50 uM measured after 24 hrs by propidium iodide/RNase A staining based flow cytometry analysis (reference value: 21.54 %); assay type: functional
[16] = target: T1, NEDD8/Cullin-1 (Homo sapiens); test: Competitive inhibition of Nedd8-cullin1 (unknown origin) adduct formation at 12.5 to 50 uM assessed as substrate Vmax by Lineweaver-Burk plot analysis; assay type: protein assay
MGC-803 = test: Antiproliferative activity against human MGC803 cells measured after 48 hrs by CCK8 assay; assay type: functional, cell-based; conditions: MGC-803, 48 h
A549 [17] = test: Induction of apoptosis in human A549 cells assessed as late apoptotic cells at 50 uM measured after 48 hrs by AnnexinV-FITC/propidium iodide staining based FACS analysis (reference value: 1.71 %); assay type: functional
A549 [18] = test: Induction of apoptosis in human A549 cells assessed as early apoptotic cells at 25 uM measured after 48 hrs by AnnexinV-FITC/propidium iodide staining based FACS analysis (reference value: 2.19 %); assay type: functional
A549 [19] = test: Inhibition of cullin-RING ligase in human A549 cells assessed as accumulation of Wee1 level at 50 to 125 uM and measured after 6 to 12 hrs by Western blot analysis; assay type: cell-based
MKN-45 = test: Antiproliferative activity against human MKN45 cells measured after 48 hrs by CCK8 assay; assay type: functional, cell-based; conditions: MKN-45, 48 h
Huh-7 = test: Antiproliferative activity against human HuH7 cells measured after 48 hrs by CCK8 assay; assay type: functional, cell-based; conditions: Huh-7, 48 h
A549 [20] = test: Antiproliferative activity against human A549 cells measured after 48 hrs by CCK8 assay; assay type: functional, cell-based; conditions: A549, 48 h
[21] = target: T2, NEDD8-conjugating enzyme Ubc12 (Homo sapiens); test: Inhibition of UBC12 in human A549 cells assessed as decrease in Cullin2-Nedd8 adduct level measured after 6 to 12 hrs by Western blot analysis; assay type: cell-based
A549 [22] = test: Antitumor activity against human A549 cells xenografted in nude mouse assessed as decrease in tumor weight at 30 mg/kg, ip qd measured after 22 days; assay type: functional, organism-based
[23] = target: T1, NEDD8/Cullin-1 (Homo sapiens); test: Inhibition of Nedd8-cullin1 adduct formation in human A549 cells assessed as decrease in cullin1 neddylation at 100 uM incubated for 6 to 12 hrs by Western blot analysis; assay type: cell-based
[24] = target: T2, NEDD8-conjugating enzyme Ubc12 (Homo sapiens); test: Inhibition of UBC12 in human A549 cells assessed as decrease in Cullin3-Nedd8 adduct level measured after 6 to 12 hrs by Western blot analysis; assay type: cell-based
A549 [25] = test: Antitumor activity against human A549 cells xenografted in nude mouse assessed as decrease in tumor size at 60 mg/kg, ip qd measured after 22 days; assay type: functional, organism-based
[26] = target: T2, NEDD8-conjugating enzyme Ubc12 (Homo sapiens); test: Inhibition of UBC12 in human A549 cells assessed as decrease in Cullin3-Nedd8 adduct level at 50 uM measured after 6 to 12 hrs by Western blot analysis; assay type: cell-based
A549 [27] = test: Cell cycle arrest in human A549 cells assessed as accumulation at G2 phase at 50 uM measured after 24 hrs by propidium iodide/RNase A staining based flow cytometry analysis (reference value: 12.69 %); assay type: functional
HepG2 = test: Antiproliferative activity against human HepG2 cells measured after 48 hrs by CCK8 assay; assay type: functional, cell-based; conditions: HepG2, 48 h

Question: How did the IC50 (PLC) turn out when `CCOc1nc2cccc(C(=O)OC(C)OC(=O)OC3CCCCC3)c2n1Cc1ccc(-c2ccccc2-c2nn[nH]n2)cc1` (stereo not given) [CANDESARTAN CILEXETIL] was run?
Answer: 60.2 µM

Question: And the Activity (A549 [1])?
Answer: 60.18%

Question: What about the Activity (A549 [2]) of the same compound?
Answer: 8.15%

Question: And the Activity (A549 [3])?
Answer: 40.44%

Question: What about the Activity (A549 [4]) of the same compound?
Answer: 63.02%

Question: And the inhibition [5]?
Answer: Active

Question: And the Activity (A549 [6])?
Answer: 9.54%

Question: And the IC50 (BEAS-2B)?
Answer: 89.9 µM

Question: What about the Activity (A549 [7]) of the same compound?
Answer: 6.48%

Question: And the inhibition [8]?
Answer: Active

Question: What about the inhibition [9] of the same compound?
Answer: Active

Question: What about the inhibition [10] of the same compound?
Answer: Active

Question: And the Activity (A549 [11])?
Answer: Active

Question: And the IC50 (NCI-H1299)?
Answer: 45.1 µM

Question: And the inhibition [12]?
Answer: Active

Question: What about the IC50 (T47D) of the same compound?
Answer: 64.3 µM

Question: What about the Activity (A549 [13]) of the same compound?
Answer: Active

Question: And the Activity (A549 [14])?
Answer: 18.37%

Question: What about the Activity (A549 [15]) of the same compound?
Answer: 11.53%

Question: What about the inhibition [16] of the same compound?
Answer: Active

Question: What about the IC50 (MGC-803) of the same compound?
Answer: 57.1 µM

Question: And the Activity (A549 [17])?
Answer: 13.36%

Question: And the Activity (A549 [18])?
Answer: 4.1%

Question: And the inhibition (A549 [19])?
Answer: Active

Question: And the IC50 (MKN-45)?
Answer: 68.9 µM

Question: And the IC50 (Huh-7)?
Answer: > 100 µM

Question: What about the IC50 (A549 [20]) of the same compound?
Answer: 63.9 µM

Question: And the inhibition [21]?
Answer: Dose-dependent effect

Question: What about the Activity (A549 [22]) of the same compound?
Answer: Active

Question: And the inhibition [23]?
Answer: Active

Question: And the inhibition [24]?
Answer: Dose-dependent effect

Question: What about the Activity (A549 [25]) of the same compound?
Answer: Active

Question: And the inhibition [26]?
Answer: Active

Question: What about the Activity (A549 [27]) of the same compound?
Answer: 6.79%

Question: And the IC50 (HepG2)?
Answer: > 100 µM
